4 compounds from patent US6392082B1, “Triazole derivatives having antifungal activity” (Sankyo Company, Limited, priority 1999, dated 2002) can be followed below.

SMILES strings stand for the structures. In brackets after ≈: the same amount, converted by molar mass. Read-outs that look alike come from different tables or passages of the source.

The test system of series [1] is Canadida albicans ATCC 64550. Kind of series: In vitro antifungal activity, MIC by broth microdilution (Candida species). Format: cell-based. The following applies: ATCC64550, lowest concentration causing at least 80% growth inhibition, RPMI1640 pH 7.0, 35° C., 24-72 hours, read-out: MIC value C.a. (1). The procedure: (§1) The antifungal activities of test compounds were assessed according to their minimum inhibitory concentrations (MICs) which were measured by the methods described below.
(§2) 1(i) Measurement Method for Candida Species
(§3) A modified version of the procedure described in Japanese Journal of Medical Mycology, 36, 62 (1995) was used, MICs being determined by the broth microdilution method. Each test compound was dissolved in dimethyl sulfoxide (DMSO). Serial two-fold dilutions of each compound were prepared with DMSO and then final dilutions were prepared with RPMI1640 medium (product of Dainippon Pharmaceutical Co., Ltd.) which was buffered to pH 7.0 with 0.165 M 3-(morpholino)propanesulfonic acid (MOPS). […] Colonies of the test fungi were suspended in physiological saline followed by adjustment to 5.0×10^2 to 2.5×10^3 cells/ml with RPM11640 medium which was buffered to pH 7.0 with 0.165 M MOPS. 100 μl of the fungal suspension were added to each of the wells of microtitre plates and then 100 μl of each diluted test compound were added to one of said wells and mixed with the fungal suspension therein, before incubating at 35° C. for 24-72 hours. […] The MICs were defined as the lowest compound concentrations causing at least 80% growth inhibition when compared with the control.
b) C.a. (1): Canadida albicans ATCC 64550.
(Dilution methods test growth across graded concentrations, often in twofold steps.)

The test system of series [2] is Canadida albicans TIMM 3164. The series is described as above. Format: cell-based. The following applies: TIMM3164, lowest concentration causing at least 80% growth inhibition, RPMI1640 pH 7.0, 35° C., 24-72 hours, read-out: MIC value C.a. (2). As to the method:
as §1, §2, §3
c) C.a. (2): Canadida albicans TIMM 3164.

The test system of series [3] is Aspergillus fumigatus SANK 10569. In words: In vitro antifungal activity, MIC by broth microdilution (Aspergillus species). It is filed as cell-based. The following applies: SANK10569, lowest concentration causing at least 80% growth inhibition, RPMI1640 pH 7.0, 30° C., 24-72 hours, read-out: MIC value A.f. As to the method: The antifungal activities of test compounds were assessed according to their minimum inhibitory concentrations (MICs) which were measured by the methods described below. 1(iii) Measurement Method for Aspergillus Species A modified version of the protocol in Antimicrob. Agents Chemother., 39, 314 (1995) was used, MICs being determined by the broth microdilution method. Test compounds were dissolved in dimethyl sulfoxide (DMSO). Serial two-fold dilutions of each compound were prepared with DMSO and then final dilutions were prepared with RPMI1640 medium (product of Dainippon Pharmaceutical Co., Ltd.) buffered to pH 7.0 with 0.165 M MOPS.

Series [4] can be described thus: Acid stability test (half-life in 0.01 N HCl). Format: physicochemical. The following applies: 0.01 N HCl (pH 2.0), initial 50 μg/ml, 37° C., HPLC, read-out: t1/2, stability in acidic solution. As to the method: A small amount of the solution was taken from the reaction solution at predetermined time intervals and the reaction was stopped in these samples by neutralizing with an aqueous sodium hydroxide solution. Quantitative determination of the residual rate of the test compound in the solution was determined by HPLC.
The half-life (t½) of the test compound in 0.01 N HCl was determined according to the following equation using the degradation rate constant kdeg which was determined by semi-logarithmic regression analysis of the residual rate in the solution.

In series [5] the test system is Canadida albicans TIMM 3165. Kind of series: In vitro antifungal activity, MIC by broth microdilution (Candida species). It is filed as cell-based. The following applies: TIMM3165, lowest concentration causing at least 80% growth inhibition, RPMI1640 pH 7.0, 35° C., 24-72 hours, read-out: MIC value C.a. (3). As to the method: as §1, §2, §3
d) C.a. (3): Canadida albicans TIMM 3165.

Series [6] in a line: Oral absorption rate (bioavailability) in SD rats. It is filed as in vivo. As to conditions: rat, blood; fasted SD rats; oral 20 mg/kg vs intravenous 2 mg/kg in PEG 400; AUCpo(0-48 h)/AUCiv(0-∞), dose-corrected; read-out: BA (bioavailability). The procedure: A test compound in polyethylene glycol 400 (PEG 400) was administered either orally (4 animals) or intravenously into the caudal vein (3 animals) of SD rats (age 7 weeks) which had fasted overnight. The oral dose of the test compound was 20 mg per kg of rat body weight. The intravenous dose of the test compound injected into the caudal vein was 2 mg per kg of rat body weight. The amount of PEG 400 used was 1 ml per kg of rat body weight for both oral and intravenous administration. The bioavailability (BA) values were calculated according to the following equation using the integrated values of the blood concentration of the test compound up to 48 hours after oral administration [AUCpo(0-48 h)], and the integrated values of the blood concentration extrapolated from 0 to infinite time after intravenous administration into the caudal vein [AUCiv(0-∞)].
BA(%)={[(AUCpo(0-48))/(dosepo)]/[(AUCiv(0-∞))/(doseiv)]}×100
The larger the value of BA, the higher the oral absorption rate. The results for the compound of formula (Ib) of the present invention and those for Comparative Compounds A, B and C are shove in Table 3.

In series [7] the test system is Cryptococcus neoformans TIMM 0362. In words: In vitro antifungal activity, MIC by broth microdilution (Cryptococcus neoformans). It is filed as cell-based. The following applies: TIMM0362, lowest concentration causing at least 50% growth inhibition (absorbance 485 nm), yeast nitrogen base pH 7.0, 35° C., 48-72 hours, read-out: MIC value C.n. As to the method: as §1
1(ii) Measurement Method for Cryptococcus neoformans
A modified version of the Broth Dilution Antifuinal Susceptibility Testing of Yeast; Approved Standard M27-A (Vol. 17, No. 9, June 1997, NCCLS) was used, MICs being determined by the broth microdilution method. Each test compound was dissolved in DMSO. Serial two-fold dilutions of each compound were prepared with DMSO and final dilutions were prepared with yeast nitrogen base medium (product of Difco Laboratories) buffered to pH 7.0 with 0.165 M MOPS. […] Colonies of the test fungi were suspended in physiological saline followed by adjustment to 5.0×10^3 to 2.5×10^4 cells/ml with yeast nitrogen base medium buffered to pH 7.0 with 0.165 M MOPS. 100 μl of the fungal suspension were added to each of the wells of microtitre plates and then 100 μl of each diluted test compound were added to one of said wells and mixed with the fungal suspension therein, before incubating at 35° C. for 48-72 hours. […] The MICs were defined as the lowest compound concentrations causing at least 50% growth inhibition when compared with the control as measured by light absorbance at 485 nm.
e) C.n.: Cryptococcus neoformans TIMM 0362.

Where [8] appears, read: 0.01 N hydrochloric acid with 30% acetonitrile.

`C[C@@H](S[C@H]1CO[C@H](/C=C/C=C/c2ccc(C#N)cc2F)OC1)[C@](O)(Cn1cncn1)c1ccc(F)cc1F` [Compound (Ib), (2R,3R)-3-[[trans-2-[(1E,3E)-4-(4-Cyano-2-fluorophenyl)-1,3-butadien-1-yl]-1,3-dioxan-5-yl]thio]-2-(2,4-difluorophenyl)-1-(1H-1,2,4-triazol-1-yl)-2-butanol]: the MIC (usually the lowest concentration that inhibits growth of the organism) in series [1] is 0.25 µg/mL (≈ 0.461 µM); in series [2], not above 0.008 µg/mL; in series [3], 0.031 µg/mL (≈ 0.0571 µM); in series [5] it was 0.063 µg/mL (≈ 0.116 µM); in series [7], not above 0.008 µg/mL. Moreover, the half-life at 50 μg/ml in series [4] (buffer, 30% acetonitrile) is 6.4 min. Moreover, in series [6], the bioavailability was determined as 123%.
Regarding `CC(C[C@H]1CO[C@H](/C=C/C=C/c2ccc(C#N)cc2F)OC1)C(O)(Cn1cncn1)c1ccc(F)cc1F` (some centres unmarked) [Comparative Compound (C)], in series [4] (setting [8]), the half-life at 50 μg/ml came out at 2.42 min. Further, in series [6], the bioavailability stood at 57.8%.
For the compound `C[C@@H](S[C@H]1CO[C@H](/C=C/C=C/c2ccc(F)cc2F)OC1)[C@](O)(Cn1cncn1)c1ccc(F)cc1F` [Comparative Compound (B)], the MIC was 0.5 µg/mL (≈ 0.934 µM) in series [1]; 0.031 to 0.063 µg/mL (≈ 0.0579 to 0.118 µM) in series [2]; 0.125 µg/mL (≈ 0.233 µM) in series [3]; 0.125 to 0.25 µg/mL (≈ 0.233 to 0.467 µM) in series [5]; not above 0.008 µg/mL in series [7]. The half-life at 50 μg/ml in series [4] (setting [8]) was found to be 1.54 min. Further, in series [6], the bioavailability was 6.24%.
`C[C@@H](S[C@H]1CO[C@H](/C=C/C=C/c2ccc(C#N)cc2)OC1)[C@](O)(Cn1cncn1)c1ccc(F)cc1F` [Comparative Compound (A), (2R,3R)-3-[[trans-2-[(1E,3E)-4-(4-Cyanophenyl)-1,3-butadien-1-yl]-1,3-dioxan-5-yl]thio]-2-(2,4-difluorophenyl)-1-(1H-1,2,4-triazol-1yl)-2-butanol]: the MIC was 0.5 to 1 µg/mL (≈ 0.953 to 1.91 µM) in series [1]; 0.016 µg/mL (≈ 0.0305 µM) in series [2]; 0.031 µg/mL (≈ 0.0591 µM) in series [3]; 0.125 to 0.25 µg/mL (≈ 0.238 to 0.477 µM) in series [5]; 0.016 µg/mL (≈ 0.0305 µM) in series [7]. For the same compound, the half-life at 50 μg/ml in series [4] (setting [8]) is 3.12 min. Further, the bioavailability in series [6] turned out to be 50.7%.
